Assay results as given in patent publication US9326513B2, “Fungicidal compositions” (Syngenta Participations AG, priority 2011, dated 2016).

Legend:
Assay type in all cases: in vivo
Settings in all cases: foliar, compared to untreated control leaf disks, read-out: disease control
[1] = system: Puccinia recondita f. sp. tritici; experiment: Puccinia recondita f. sp. tritici / wheat / leaf disc curative (brown rust)
Procedure: Puccinia recondita f. sp. tritici/Wheat/Leaf Disc Curative (Brown Rust) Wheat leaf segments cv. Kanzler are placed on agar in multiwell plates (24-well format). The leaf segments are inoculated with a spore suspension of the fungus. Plates were stored in darkness at 19° C. and 75% rh. The formulated test compound diluted in water was applied 1 day after inoculation.

[2] = system: Puccinia recondita f. sp. tritici; experiment: Puccinia recondita f. sp. tritici / wheat / leaf disc preventative (brown rust)
From the text: Puccinia recondita f. sp. tritici/Wheat/Leaf Disc Preventative (Brown Rust) Wheat leaf segments cv. Kanzler were placed on agar in multiwell plates (24-well format) and sprayed with the formulated test compound diluted in water. The leaf disks were inoculated with a spore suspension of the fungus 1 day after application.

[3] = system: Pyrenophora teres; experiment: Pyrenophora teres / barley / leaf disc preventative (net blotch)
From the text: Pyrenophora teres/Barley/Leaf Disc Preventative (Net Blotch) Barley leaf segments cv. Hasso were placed on agar in a multiwell plate (24-well format) and sprayed with the formulated test compound diluted in water. The leaf segments were inoculated with a spore suspension of the fungus 2 days after application.

[4] = system: Blumeria graminis f. sp. tritici (Erysiphe graminis f. sp. tritici); experiment: Blumeria graminis f. sp. tritici / wheat / leaf disc preventative (powdery mildew on wheat)
Outline: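 Wheat leaf segments (cv. Kanzler) on agar were sprayed with formulated compound in water, inoculated with powdery mildew 1 day later, and kept at 20° C, 60% rh (24 h dark, then 12 h light/12 h dark). Percent disease control versus untreated scored 6-8 days after application; tested at 200 ppm.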

Measured: pest or weed control at 200 ppm

CCc1cc(/N=C/N(C)CC)c(C)nc1O[C@H]1CC[C@@H](C(C)C)CC1 [Q.251]
≥ 50%: all assays above

CCN(C)/C=N/c1cc(Br)c(O[C@@H](C)c2cc(F)cc(F)c2)nc1C [Q.260]
≥ 50%: all assays above

CCN(C)/C=N/c1cc(Br)c(O[C@H](C)c2cc(F)cc(F)c2)nc1C [Q.261]
≥ 50%: all assays above

CCN(C)/C=N/c1cc(-c2ccccc2)c(OC2CC=CC2)nc1C [Q.262]
≥ 50%: all assays above

CCN(C)/C=N/c1cc(Br)c(O[C@H]2CC[C@@H](c3ccccc3)CC2)nc1C [Q.269]
≥ 50%: all assays above

C=Cc1ccccc1COc1nc(C)c(/N=C/N(C)CC)cc1Br [Q.275]
≥ 50%: all assays above

C=Cc1cccc(COc2nc(C)c(/N=C/N(C)CC)cc2Br)c1 [Q.277]
≥ 50%: all assays above

C=Cc1cccc(C(C)Oc2nc(C)c(/N=C/N(C)CC)cc2Br)c1 (stereo not drawn) [Q.278]
≥ 50%: all assays above

CCN(C)/C=N/c1cc(C(C)C)c(OC(C)c2cc(F)cc(F)c2)nc1C (stereo not drawn) [Q.280]
≥ 50%: all assays above

CCN(C)/C=N/c1cc(Br)c(OC2CCC(=O)C=C2C)nc1C (stereo not drawn) [Q.282]
≥ 50%: all assays above

CCc1cccc(C(C)Oc2nc(C)c(/N=C/N(C)CC)cc2Br)c1 (stereo not drawn) [Q.284]
≥ 50%: all assays above

CCc1ccccc1COc1nc(C)c(/N=C/N(C)CC)cc1Br [Q.285]
≥ 50%: all assays above

CCN(C)/C=N/c1cc(Br)c(OCc2ccccc2C(F)F)nc1C [Q.289]
≥ 50%: all assays above

CCN(C)/C=N/c1cc(Br)c(OCc2cccc(C(C)F)c2)nc1C (stereo not drawn) [Q.291]
≥ 50%: all assays above

CCN(C)/C=N/c1cc(Br)c(OC(C)c2cccc(C(C)F)c2)nc1C (stereo not drawn) [Q.292]
≥ 50%: all assays above

C=C1CCC(Oc2nc(C)c(/N=C/N(C)CC)cc2Br)CC1 [Q.293]
≥ 50%: all assays above

CCN(C)/C=N/c1cc(Br)c(OC(C)c2ccccc2F)nc1C (stereo not drawn) [Q.299]
≥ 50%: all assays above

CCN(C)/C=N/c1cc(Br)c(OC(C)c2ccccc2Cl)nc1C (stereo not drawn) [Q.301]
≥ 50%: all assays above

CCN(C)/C=N/c1cc(Br)c(OCc2ccccc2Br)nc1C [Q.302]
≥ 50%: all assays above

CCN(C)/C=N/c1cc(Br)c(OCc2ccccc2C#N)nc1C [Q.304]
≥ 50%: all assays above

CCN(C)/C=N/c1cc(Br)c(OC2CCC(C)C(C)CC2)nc1C (stereo not drawn) [Q.308]
≥ 50%: all assays above

CCN(C)/C=N/c1cc(Br)c(OC2CC(C)=C(C)C2)nc1C [Q.315]
≥ 50%: all assays above

CCN(C)/C=N/c1cc(Br)c(OC2CC=CCC2)nc1C (stereo not drawn) [Q.316]
≥ 50%: all assays above

CCN(C)/C=N/c1cc(Br)c(OCc2ccc(C)cc2C)nc1C [Q.324]
≥ 50%: all assays above

CCN(C)/C=N/c1cc(Br)c(OC(C)c2cccc(CCc3ccccc3)c2)nc1C (stereo not drawn) [Q.329]
≥ 50%: all assays above

CCN(C)/C=N/c1cc(Br)c(OC2CCC(C(C)C)CC2)nc1C (stereo not drawn) [Q.334]
≥ 50%: all assays above

CCN(C)/C=N/c1cc(Br)c(OCc2ccccc2SC)nc1C [Q.335]
≥ 50%: all assays above

CCN(C)/C=N/c1cc(Br)c(OCc2ccccc2[S+](C)[O-])nc1C (stereo not drawn) [Q.336]
≥ 50%: all assays above

CCN(C)/C=N/c1cc(Br)c(OCc2ccccc2S(C)(=O)=O)nc1C [Q.337]
≥ 50%: all assays above

CCCc1cccc(C(C)Oc2nc(C)c(/N=C/N(C)CC)cc2Br)c1 (stereo not drawn) [Q.344]
≥ 50%: all assays above

CCCc1cccc(COc2nc(C)c(/N=C/N(C)CC)cc2Br)c1 [Q.346]
≥ 50%: all assays above

CCN(C)/C=N/c1cc(Br)c(OCCc2ccccc2C)nc1C [Q.349]
≥ 50%: all assays above

Cc1ccccc1CCOc1ccc(/N=C/N(C)C(C)C)c(C)n1 [Q.352]
≥ 50%: all assays above

CCN(C)/C=N/c1cc(Br)c(OC(C)Cc2ccccc2C)nc1C (stereo not drawn) [Q.353]
≥ 50%: all assays above

CCN(C)/C=N/c1ccc(OC(C)Cc2ccccc2C)nc1C (stereo not drawn) [Q.354]
≥ 50%: all assays above

Cc1ccccc1CC(C)Oc1ccc(/N=C/N(C)C(C)C)c(C)n1 (stereo not drawn) [Q.355]
≥ 50%: all assays above

CCN(C)/C=N/c1cc(Br)c(OC(C)CCC2CC2)nc1C (stereo not drawn) [Q.357]
≥ 50%: all assays above

CCN(C)/C=N/c1ccc(OC(C)c2cc(C)cc(C)c2)nc1C (stereo not drawn) [Q.358]
≥ 50%: all assays above

CCC(Oc1ccc(/N=C/N(C)C(C)C)c(C)n1)c1cc(C)cc(C)c1 (stereo not drawn) [Q.361]
≥ 50%: all assays above

CCN(C)/C=N/c1cc(Br)c(OCCc2ccc(C)cc2)nc1C [Q.364]
≥ 50%: all assays above

CCN(C)/C=N/c1cc(Br)c(OCc2cc(OC)cc(OC)c2)nc1C [Q.370]
≥ 50%: all assays above

CCN(C)/C=N/c1cc(Br)c(OC2CCC(F)(F)CC2)nc1C [Q.375]
≥ 50%: all assays above
